1 compound from EP4324461A1, “(E)-N-CINAMOYLAMINOALKANOLES WITH MELANOGENESIS INHIBITORY ACTIVITY” (UNIWERSYTET JAGIELLONSKI, priority 2022, dated 2024) can be followed below.

Molecules are shown by their SMILES.

The data set concerns human reconstructed epidermis Episkin™. Briefly: Skin permeation in reconstructed human epidermis (Episkin). It is filed as in vitro ADME. How it is done: The tested substance A-111 in a macrogol formulation (2% A-111 in the PEG400+PEG800 base) was applied onto the epidermis in an amount of approximately 10 mg/cm^2 ("finite dose application") using a sterile inoculation loop. The amount applied was weighed accurately. As a control, a macrogol formulation without the test substance was applied onto the epidermis. The finished experimental plate was incubated at 32 °C. At specific time intervals, aliquots of the receptor fluid (0.5 mL) were collected for the analysis and replaced with 0.5 mL of fresh receptor fluid. After 24 h of culture, all of the receptor fluid was collected. The examined tissue was washed with cotton buds soaked in methanol. The donor and receptor compartments were washed with methanol, and the epidermis was separated from the inserts and transferred to methanol. Samples were stored at -20 °C until analysis. The content (concentration) of the tested substance A-111 in the receptor fluid and in individual compartments: on the surface of the epidermis, in the epidermis, in the receptor fluid was determined using measurements in a microplate reader at 281 nm on 96-well plates transmitting ultraviolet radiation.
In order to confirm proper bioavailability, studies of the permeation of compound A-111 from a solution in PEG400 were performed in a model of reconstructed human epidermis. […] The tested substance A-111 was applied onto the epidermis in the form of a 2% PEG400 solution in an amount of 15 µL. The finished experimental plate was incubated at 32 °C. At specific time intervals, aliquots of the receptor fluid (0.5 mL) were collected for the analysis and replaced with fresh fluid. After 24 h of culture, all of the receptor fluid was collected. The examined tissue was washed with cotton buds soaked in methanol. The donor and receptor compartments were washed with methanol, and the epidermis was separated from the inserts and transferred to methanol. The content (concentration) of the tested substance A-111 in the acceptor fluid and in individual compartments: on the surface of the epidermis, in the epidermis, in the receptor fluid was determined using measurements in a microplate reader at 281nm on 96-well plates transmitting ultraviolet radiation.
Permeation studies of the A-111 compound from a cosmetic formulation were performed in a model of reconstructed human epidermis. […] 25 µL of the formulation containing the tested compound A-111 was applied to the epidermis. […] The content (concentration) of the tested substance A-111 in the receptor fluid and in individual compartments: on the surface of the epidermis, in the epidermis, in the receptor fluid was determined using measurements in a microplate reader at 281 nm on 96-well plates transmitting ultraviolet radiation.

[1] abbreviates: 2% A-111 in the PEG400+PEG800 base, approx. 10 mg/cm^2, 24 h.

Regarding `O=C(/C=C/c1ccc(Cl)cc1)NCCCCCO` [Compound A-111, (2E)-3-(4-chlorophenyl)-N-(5-hydroxypentyl)prop-2-enamide], the “accumulation in the epidermis” value under setting [1] is “no accumulation of compound A-111 in the epidermis”. The “permeation through the epidermis” value was “crosses the epidermal barrier and has the potential to penetrate the dermis” under setting [1]; “crosses the epidermal barrier and has the potential to penetrate the dermis” (2% PEG400 solution, 15 µL, 24 h); “crosses the epidermal barrier and has the potential to penetrate the dermis” (25 µL of the cosmetic formulation (0.74% A-111), 24 h).
